The values below come from US20250101026A1, “Functionalized Allopurinol Derivatives for Treatment of Alzheimer’s Disease” (BOARD OF REGENTS OF THE UNIVERSITY OF NEBRASKA, priority 2022, published 2025).

Each structure is given as a SMILES string. Where “and” joins values, the source holds several entries; their conditions need not be identical. Equal entries are not always repeated. Entries after “also recorded” stand apart in the source; their conditions may differ.

Data set [1] deals with SH-SY5Y cells. Kind of data set: Mitochondrial Stress Test in Aβ-treated SH-SY5Y cells (extracellular flux analyzer). Format: cell-based, human. As to conditions: for proton leak, ATP production and maximal respiration: restoration of mitochondrial function lost by Aβ: then 25 μM Aβ. Here is the method:
Mitochondrial Stress Test. […] After 48 hours, media was replaced with assay medium consisting of XF Base Medium supplemented with 10 mM glucose, 10 mM pyruvic acid, and 1 mM L-glutamine. Subsequently, the analysis of mitochondrial oxygen consumption rate (OCR) was performed in a flux analyzer. The OCR values were obtained both during baseline (prior to addition of any Mito Stress Test substances), and after the addition of […], 2 μM FCCP and 0.5 μM rotenone+0.5 μM antimycin A, respectively. Prior to analysis, data were corrected by withdrawing non-mitochondrial respiration (measured after the injection of rotenone and antimycin A) from all measured OCR values. After the experiment, cells were lysed using RIPA buffer and protease inhibitor cocktail, then proteins were quantified via BCA assay. Results were normalized to protein concentration of each well to its OCR value.

Data set [2] deals with SH-SY5Y cells. As to the kind of experiment: Aβ-induced toxicity in SH-SY5Y cells, MTS assay. Format: cell-based, human. As to conditions: pretreated 24 hrs, then 25 μM Aβ 48 hrs. Here is the method:
(§1) Cell Culture. The cell line SH-SY5Y was cultured in DMEM/F12 media supplemented with 10% fetal bovine serum, 1% penicillin-streptomycin and maintained as monolayer cultures in a humidified atmosphere containing 5% CO2 at 37° C.^42 All cell lines were authenticated via short tandem repeat analysis and tested for mycoplasma using the a commercial mycoplasma detection kit as per the manufacturer's instructions, showing no contamination. Where indicated, cells were also cultured in DMEM/low glucose media. All compounds were diluted to 20 mM solution in DMSO and were serially diluted in cell culture media for cell treatments to a final concentration range of 0.01 to 100 μM, maintaining the final DMSO concentration at less than 1%. Positive control compound HupA was serially diluted in a similar fashion as the synthesized compounds.
(§2) Amyloid Preparation. The peptide Aβ1-42, referred to as “Aβ”, was obtained from a commercial source. The oligomers of Aβ were prepared using an established method,^43 Aβ peptide was resuspended in 0.5 mM NaOH at a concentration of […] and stored at −80° C. For use in cell cultures, the stock solution was incubated at 37° C. for 5-7 days. Before use, the peptide was diluted to 25 μM in DMEM/low glucose media.
Cell Viability Assays. The SH-SY5Y cells were plated at a density of 50,000 cells/well in 96-well plates and allowed to adapt overnight in a humidified atmosphere containing 5% CO2 at 37° C. The cells were pretreated (24 hours) with the test compound and exchanged to a serum-free DMEM/low glucose media, prior to incubation with 25 μM of Aβ. Cell viability was measured after 48 hours using commercial MTS assay or lactate dehydrogenase (LDH) cytotoxicity assay.
Employing human neuroblastoma SH-SY5Y ‘neuron-like’ cells, known to express ABAD,^20 experimental conditions are described herein that result in reproducible loss of 65% cell viability upon treatment with 25 μM Aβ after 48-hour incubation (FIG. 4A). Compound 1 (AG18051) and its analog 14b were screened for toxic effects in the SH-SY5Y cell lines.
HupA at 10 μM concentration provided 74% protection from Aβ-induced toxicity. […] Again, synthesized compound 14b at 1 μM, afforded greater protection than HupA at 10 μM concentration.
A general note: Tetrazolium assays rely on reduction of a dye to a coloured formazan, in cell work by metabolically active cells.

Data set [3] has as its target T1, ABAD (Homo sapiens, UniProt Q99714).
T1 sequence (Q99714 1-261): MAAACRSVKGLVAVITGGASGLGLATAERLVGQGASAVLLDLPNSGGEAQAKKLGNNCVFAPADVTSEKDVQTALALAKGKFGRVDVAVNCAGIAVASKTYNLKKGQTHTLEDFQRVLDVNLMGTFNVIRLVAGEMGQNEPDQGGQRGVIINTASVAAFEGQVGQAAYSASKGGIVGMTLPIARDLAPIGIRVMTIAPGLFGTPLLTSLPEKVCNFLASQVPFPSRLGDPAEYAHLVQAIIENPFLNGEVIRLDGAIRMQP
Particulars: at 10 μM concentration; cited from earlier work.

Data set [4] relates to SH-SY5Y cells. As to the kind of experiment: Aβ-induced toxicity in SH-SY5Y cells, lactate dehydrogenase (LDH) release assay. The format is cell-based, human. As to conditions: 1 μM, pretreated 24 hrs, then 25 μM Aβ 48 hrs. The method, then:
as §1, §2
Cell Viability Assays. […] Cell viability was measured after 48 hours using commercial MTS assay or lactate dehydrogenase (LDH) cytotoxicity assay. […]

Data set [5] deals with T1, ABAD. As to the kind of experiment: Estradiol levels in SH-SY5Y cells treated with the substance alone. The format is cell-based. More on the design: To measure the effect of AG18051 alone in SH-SY5Y cell lines; endogenous in cells; host or cells: SH-SY5Y. Here is the method:
Estradiol ELISA assay. […] An estradiol assay was performed. In brief, the plate was loaded with samples, along with the estradiol tracer and the specific antiserum to estradiol and incubated for one hour at room temperature. After five washing steps, Ellman's Reagent was added, and the plate developed for 60 minutes with gentle shaking at room temperature. The calculated estradiol concentration was normalized to the total protein content of the samples.

A further data set addresses T2, Aβ-ABAD PPI (Homo sapiens, UniProt Q99714).
T2 construct: wildtype human SH-SY5Y cell lines, which are known to express ABAD; endogenous in cells; host or cells: SH-SY5Y
T2 sequence (Q99714 2-261 limits assumed): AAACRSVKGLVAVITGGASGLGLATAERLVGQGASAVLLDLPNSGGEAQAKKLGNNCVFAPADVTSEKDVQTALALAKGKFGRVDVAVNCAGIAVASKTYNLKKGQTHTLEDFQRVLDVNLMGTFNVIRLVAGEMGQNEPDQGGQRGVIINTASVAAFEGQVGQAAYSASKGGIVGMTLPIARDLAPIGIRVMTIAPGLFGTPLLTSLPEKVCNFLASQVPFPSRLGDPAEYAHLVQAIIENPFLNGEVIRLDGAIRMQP
As to the kind of experiment: Estradiol ELISA assay: rescue of Aβ-induced reduction of estradiol levels in SH-SY5Y cells. Format: cell-based. The method, then:
as §1, §2
Estradiol ELISA assay. SH-SY5Y cells were treated with compounds (24 hours), followed by Aβ (72 hours) in a similar fashion to that employed in the cell viability assays, the cell culture medium was collected, and cells were lysed using RIPA buffer and protease inhibitor cocktail, then proteins were quantified via BCA assay. An estradiol assay was performed. In brief, the plate was loaded with samples, along with the estradiol tracer and the specific antiserum to estradiol and incubated for one hour at room temperature. After five washing steps, Ellman's Reagent was added, and the plate developed for 60 minutes with gentle shaking at room temperature. The calculated estradiol concentration was normalized to the total protein content of the samples.
Statistical Analyses. The IC50 values of each compound were acquired from a single experiment with each inhibitor concentration run in triplicate and the statistical significance was calculated using the Student t test, or a one-way or two-way ANOVA. A P value of <0.05 was considered statistically significant. IC50 values were calculated.
To determine the effect of Aβ on estradiol production, and ABAD's role in this process, wildtype human SH-SY5Y cell lines, which are known to express ABAD, were incubated for 72 hours with Aβ.^20 Estradiol levels in the cell lysate were measured with a commercial ELISA-based estradiol assay. […] To determine if AG18051 treatment affects Aβ-induced reduction of estradiol levels, 0.1 or 1 μM AG18051 was preincubated in SH-SY5Y cells for 24 hours prior to Aβ exposure. […] AG18051 at 1 μM protected SH-SY5Y cells from Aβ-induced reduction of estradiol production to a greater significance than HupA. This confirms literature reports that AG18051 is neuroprotective and that it exerts this effect by ameliorating Aβ-induced reduction of estradiol production by ABAD.^20, 23
This assay methodology allows direct screening of compound activity in the presence of Aβ and provides direct evidence of the ability of compounds to rescue Aβ-induced reduction of estradiol production by ABAD. To measure the effect of AG18051 alone in SH-SY5Y cell lines, a 0.01-100 μM dose-response range was tested, and their effect on estradiol levels (FIG. 2B). […] To evaluate the effect of the increase of AG18051 dose in maintaining estradiol levels reduced by Aβ, AG18051 was tested in increasing concentrations in the presence of Aβ (FIG. 2B).

The test system of data set [6] is SH-SY5Y cells. Kind of data set: Cell viability of SH-SY5Y cells with compound alone. The format is cell-based, human. Particulars: up to 100 μM. The method, then: as §1
Cell Viability Assays. The SH-SY5Y cells were plated at a density of 50,000 cells/well in 96-well plates and allowed to adapt overnight in a humidified atmosphere containing 5% CO2 at 37° C. The cells were pretreated (24 hours) with the test compound and exchanged to a serum-free DMEM/low glucose media, prior to incubation with 25 μM of Aβ. Cell viability was measured after 48 hours using commercial MTS assay or lactate dehydrogenase (LDH) cytotoxicity assay. […]

For data set [7] the following is noted: cited from earlier work.

Take `C/C=C1\[C@H]2C=C(C)C[C@]1(N)c1ccc(=O)[nH]c1C2` [Huperzine A]: the “basal respiration: restored respiration levels” value with SH-SY5Y cells [1] (10 μM pretreatment 24 hrs, then 25 μM Aβ 48 hrs) came out at 46%. In addition, the “proton leak, ATP production and maximal respiration: restoration of mitochondrial function lost by Aβ” value in the data set with SH-SY5Y cells [1] (10 μM pretreatment) is on record as “trend to restore”. In the data set on SH-SY5Y cells [2] (10 μM), the “protection from Aβ-induced toxicity (MTS assay)” value was determined as 74%. In addition, the ABAD inhibition activity entry on ABAD [3] is “possess ABAD inhibition activity”.
On to `O=C(C(c1ccccc1)n1cnc2[nH]ncc2c1=S)N1CCCCCC1` (centres unmarked) [Compound 1, 1-(azepan-1-yl)-2-phenyl-2-(4-thioxo-1,4-dihydro-5H-pyrazolo[3,4-d]pyrimidin-5-yl)ethan-1-one, reference compound], for which, in the data set on SH-SY5Y cells [1] (1 μM pretreatment 24 hrs, then 25 μM Aβ 48 hrs), the “basal respiration: restored share of the cell respiration reduced by Aβ” value is given as 37%. The “proton leak, ATP production and maximal respiration: restoration of mitochondrial function lost by Aβ” value with SH-SY5Y cells [1] (1 μM pretreatment) was “trend to restore”. Moreover, the “LDH release compared with Aβ treatment alone” value in the data set on SH-SY5Y cells [4] is reported as “significantly reducing LDH release”. Also, the “effect on estradiol levels, compound alone” value at ABAD [5] (0.01-100 μM dose-response range) is “no significant reduction in estradiol levels”. Besides, the “decrease in estradiol levels compared to control” value at ABAD [5] (compound alone at 100 μM) came to 20%. Moreover, the “protection of cell viability (MTS assay)” value with SH-SY5Y cells [2] (1 μM) is reported as 79%. Moreover, the IC50 at Aβ-ABAD PPI (compounds 24 hours then Aβ 72 hours, amelioration of Aβ-induced reduction of estradiol levels, read-out: IC50 (estradiol assay)) was 1.22 µM and 1.2 µM. In addition, at Aβ-ABAD PPI (preincubated 24 hours prior to Aβ exposure, compared to Aβ-only control, listed as AG18051), the “estradiol levels in the presence of Aβ” value is “significantly maintained estradiol levels; also recorded: dose-dependent increase in estradiol levels”. Also, the “toxicity to reduce cell viability” value in the data set with SH-SY5Y cells [6] is “no toxicity”. Moreover, the solubility entry in data set [7] is reported as “poor solubility”.

Broadly, the IC50 is the point on the concentration scale where inhibition reaches its midpoint.
